From ChEMBL document CHEMBL5236548, “Marine Natural Products: A Potential Source of Anti-hepatocellular Carcinoma Drugs” (J Med Chem, 2021)

Assays:
HepG2 [1] = assay: Antimigratory activity against human HepG2 cells assessed as reduction in cell migration by cell migration assay; type: functional, cell-based
HepG2 [2] = assay: Cytotoxicity against human HepG2 cells measured after 3 days by MTT assay; type: functional, cell-based; settings: HepG2, 72 h
HepG2 [3] = assay: Cytotoxicity against human HepG2 cells incubated for 48 hrs by MTT assay; type: functional, cell-based; settings: HepG2, 48 h
HepG2 [4] = assay: Antiproliferative activity against human HepG2 cells incubated for 72 hrs by MTT assay; type: functional, cell-based; settings: HepG2, 72 h
HepG2 [5] = assay: Antiproliferative activity against human HepG2 cells assessed as cell growth inhibition by SRB method; type: functional
SK-HEP1 = assay: Antiproliferative activity against human SK-HEP1 cells assessed as cell growth inhibition by SRB method; type: functional
Bel-7402 = assay: Cytotoxicity against human 7402 hepatoma cells incubated for 24 hrs by MTT assay; type: functional, cell-based; settings: Bel-7402, 24 h
MDA-MB-435 = assay: Cytotoxicity against human MDA-MB-435 cells incubated for 24 hrs by MTT assay; type: functional, cell-based; settings: MDA-MB-435, 24 h
SMMC-7721 [6] = assay: Antiproliferative activity against human SMMC-7721 cells measured after 48 hrs; type: functional, cell-based; settings: SMMC-7721, 48 h
SMMC-7721 [7] = assay: Antitumor activity against human SMMC-7721 cells xenografted in mouse assessed as reduction in tumor volume at 20 mg/kg administered once every two days for 21 days relative to control; type: functional; parameters: scale not given: the % may be the effect or the level left; settings: time 21 day
HepG2 [8] = assay: Cytotoxicity against human HepG2 cells by MTT assay; type: functional, cell-based
HepG2 [9] = assay: Antiproliferative activity against human HepG2 cells by MTT assay; type: functional, cell-based
[10] = Antiproliferative activity against human HCC cells by MTT assay; type: functional, cell-based
Huh-7 = assay: Antiproliferative activity against human Huh-7 cells by MTT assay; type: functional, cell-based
SNU-387 = assay: Antiproliferative activity against human SNU-387 cells by MTT assay; type: functional, cell-based
HepG2 [11] = assay: Anticancer activity against human HepG2 cells by MTT assay; type: functional, cell-based

Question: With `CC[C@H]1C=CCC[C@@]2(C[C@@H]3CC[C@]4(O)[C@H](C(=O)OCCCCCCCCCCCCCCCC(=O)N(CCCN)C[C@@H](O)CCN)[C@]5(CCC[C@@H](C)O5)NC(=N2)N34)O1` as the compound, how does the IC50 (HepG2 [1]) read?
Answer: 0.18 µM

Question: Which IC50 (HepG2 [2]) does the source give for `C=C(CC[C@@H](C)[C@H]1[C@@H](O)C[C@H]2[C@@H]3CC=C4C[C@@H](O)CC[C@]4(C)[C@H]3[C@H](O)C[C@]12C)C(C)C` here?
Answer: 14.9 µM

Question: For `COc1cccc2c1C(=O)c1c(O)c3c(c(O)c1C2=O)C[C@@](O)(C(=O)CO)C[C@@H]3O[C@H]1C[C@H](N)[C@@H](O)[C@H](C)O1` [EPIRUBICIN], which IC50 (HepG2 [3]) is on record?
Answer: 0.96 µM

Question: For `CC(=O)O[C@H]1CC[C@]2(C)C3CC[C@@]4(C)C(CCC4[C@H](C)CCCC(C)C)C3[C@@H](c3nc4ccccc4[nH]3)[C@]2(O)C1` (some centres undefined), which IC50 (HepG2 [4]) is on record?
Answer: 4.2 µM

Question: For `COC1=CC[C@@H]([C@@H](C)/C=C(C)/C=C\C=C/C(=O)N[C@H](C(=O)N/C=C\C[C@H](C/C=C(\C)Cl)OC(N)=O)C(C)(C)C)OC1=O`, which GI50 (HepG2 [5]) is on record?
Answer: 0.000752 µM

Question: And the GI50 (SK-HEP1)?
Answer: 0.000278 µM

Question: For `COC1=CC(=O)c2c(O)c3c(c(O)c2C1=O)C[C@]1(C)OCO[C@@H]1C3`, which IC50 (HepG2 [3]) is on record?
Answer: 12.8 µM

Question: For `CCC(C)SC1=C(SC)C(=O)c2c(O)c3c(c(O)c2C1=O)C[C@](C)(O)[C@H](O)C3` (some centres undefined), which IC50 (HepG2 [3]) is on record?
Answer: 2.39 µM

Question: What does the source list for `COC(=O)N[C@H]1[C@@H](C)O[C@@H](O[C@H]2C/C=C(\C)[C@@H]3C=C[C@@H]4[C@@H](O[C@H]5C[C@@H](O[C@H]6C[C@@H](O)[C@@H](O[C@@H]7C[C@@H](O)[C@@H](OC)[C@H](C)O7)[C@H](C)O6)[C@@H](O)[C@H](C)O5)[C@H](C)C[C@H](C)[C@H]4[C@]3(C)/C(O)=C3\C(=O)O[C@]4(C[C@@H](C)C(CO)=C[C@H]4/C=C/2C)C3=O)C[C@]1(C)[N+](=O)[O-]`?
Answer: IC50 (Bel-7402): 0.506 µM; IC50 (MDA-MB-435): 52.1 µM

Question: Which results are given for `C[C@@]12C[C@@H](O)C[C@]3(C)C4=CC(=O)OCC4=C[C@@H](OC1=O)C23` (some centres undefined)?
Answer: IC50 (SMMC-7721 [6]): 19 µM; Activity (SMMC-7721 [7]): 86.4%

Question: Which GI50 (SK-HEP1) does the source give for `CC[C@]1(O)C[C@@H]2CN(CCc3c([nH]c4ccccc34)[C@@](C(=O)OC)(c3cc4c(cc3OC)N(C)[C@H]3[C@@](O)(C(=O)OC)[C@H](OC(C)=O)[C@]5(CC)C=CCN6CC[C@]43[C@@H]65)C2)C1` [VINBLASTINE] here?
Answer: 0.0378 µM

Question: For `C#CCNC1=CC(=O)c2c(O)c3c(c(O)c2C1=O)C[C@](C)(O)[C@H](O)C3`, which IC50 (HepG2 [3]) is on record?
Answer: 10.1 µM

Question: Which IC50 (HepG2 [8]) does the source give for `C/C=C(\N=C=S)C(=O)O[C@H]1[C@@H](OC(C)=O)[C@@H](O)[C@H]([C@@]2(O)CC(=O)C(N)=C(C(=O)O)C2=O)O[C@@H]1C` here?
Answer: 4.3 µM

Question: Which IC50 (Bel-7402) does the source give for `COC(=O)N[C@H]1[C@@H](C)O[C@@H](O[C@H]2C/C=C(\C)[C@@H]3C=C[C@@H]4[C@@H](O[C@H]5C[C@@H](O[C@H]6C[C@@H](O)[C@@H](O[C@@H]7C[C@@H](O)[C@@H](OC)[C@H](C)O7)[C@H](C)O6)[C@@H](O)[C@H](C)O5)[C@H](C)C[C@H](C)[C@H]4[C@]3(C)/C(O)=C3\C(=O)O[C@]4(C[C@@H](C)C(CO)=C[C@H]4/C=C/2C)C3=O)C[C@]1(C)N` here?
Answer: 625 µM

Question: And the IC50 (MDA-MB-435)?
Answer: 6.48 µM

Question: Which results are given for `CNC(=O)c1cc(Oc2ccc(NC(=O)Nc3ccc(Cl)c(C(F)(F)F)c3)cc2)ccn1` [SORAFENIB]?
Answer: IC50 (HepG2 [9]): 6.4 µM; IC50 [10]: 21.2 µM; IC50 (Huh-7): 4.25 µM; IC50 (SNU-387): 259 µM

Question: With `CCCCCC1=C/C(=C\c2[nH]c(-c3ccc[nH]3)cc2OC)N=C1C` as the compound, how does the IC50 (HepG2 [11]) read?
Answer: 0.04 µM

Question: For `C/C=C\C[C@@H](C/C=C\NC(=O)[C@@H](NC(=O)\C=C/C=C\C(C)=C\[C@H](C)[C@@H]1CC=C(OC)C(=O)O1)C(C)(C)C)OC(N)=O` [PLOCABULIN], which GI50 (HepG2 [5]) is on record?
Answer: 0.00276 µM

Question: What about the GI50 (SK-HEP1) of the same compound?
Answer: 0.000179 µM
